Measurements as given in patent US20240360134A1, “PYRAZOLOPYRIMIDINES AND THEIR USES AS PDGFR INHIBITORS” (priority 2021, published 2024).
Where two headings read alike, the source gives them in different places.

Assays:
[1] = in vivo; cited from earlier work
[2] = biological target: VEGFR2, unphosphorylated (Homo sapiens (Human), UniProt P35968); assay: VEGFR ADP GLO assay; format: biochemical; details: 5 nM VEGFR2, 1.2 mM ATP, 1 mg/mL Srctide, 180 min
Summary of the method: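 Unphosphorylated kinase (10 nM 2× solution) pre-incubated 30 min at RT with compounds (11-point, 3-fold, top 10 µM), then reacted 180 min with srctide and ATP (2×: 2 mg/mL, 2.4 mM) in HEPES pH 7.5 buffer. ADP read by luminescence. IC50 from 4-parameter fit, normalized to DMSO and 1 µM TAK-593.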

[3] = biological target: PDGFRβ (Rattus norvegicus (Rat), UniProt Q05030); assay: PDGFRβ Cellular Assay (PDGFRb P-Y751 HTRF, PDGF-BB stimulated A10 cells); format: cell-based
Summary of the method: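 Rat A10 cells plated overnight were treated with compound for 3 h, stimulated with rat PDGF-BB (working stock 100 ng/mL in 10% FBS medium) for 10 min, then lysed.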

[4] = biological target: His6-TEV-PDGFRβ (557-1016) (Homo sapiens (Human), UniProt P09619); assay: PDGFRβ HTRF Assay; format: biochemical
[5] = biological target: Tb-labeled inactive PDGFRβ (Homo sapiens (Human), UniProt P09619); assay: biochemical; format: binding
[6] = A10 cells, 3 hours compound, 15 ng/mL PDGFbb for 10 minutes, read-out: PDGFR Cellular IC50
[7] = 800 μM ATP, 0.5 μM TK-substrate biotin peptide, 30 min pre-incubation, 3 hours reaction, read-out: PDGFR HTRF IC50

Sequence of His6-TEV-PDGFRβ (557-1016) (P09619 whole entry, looked up): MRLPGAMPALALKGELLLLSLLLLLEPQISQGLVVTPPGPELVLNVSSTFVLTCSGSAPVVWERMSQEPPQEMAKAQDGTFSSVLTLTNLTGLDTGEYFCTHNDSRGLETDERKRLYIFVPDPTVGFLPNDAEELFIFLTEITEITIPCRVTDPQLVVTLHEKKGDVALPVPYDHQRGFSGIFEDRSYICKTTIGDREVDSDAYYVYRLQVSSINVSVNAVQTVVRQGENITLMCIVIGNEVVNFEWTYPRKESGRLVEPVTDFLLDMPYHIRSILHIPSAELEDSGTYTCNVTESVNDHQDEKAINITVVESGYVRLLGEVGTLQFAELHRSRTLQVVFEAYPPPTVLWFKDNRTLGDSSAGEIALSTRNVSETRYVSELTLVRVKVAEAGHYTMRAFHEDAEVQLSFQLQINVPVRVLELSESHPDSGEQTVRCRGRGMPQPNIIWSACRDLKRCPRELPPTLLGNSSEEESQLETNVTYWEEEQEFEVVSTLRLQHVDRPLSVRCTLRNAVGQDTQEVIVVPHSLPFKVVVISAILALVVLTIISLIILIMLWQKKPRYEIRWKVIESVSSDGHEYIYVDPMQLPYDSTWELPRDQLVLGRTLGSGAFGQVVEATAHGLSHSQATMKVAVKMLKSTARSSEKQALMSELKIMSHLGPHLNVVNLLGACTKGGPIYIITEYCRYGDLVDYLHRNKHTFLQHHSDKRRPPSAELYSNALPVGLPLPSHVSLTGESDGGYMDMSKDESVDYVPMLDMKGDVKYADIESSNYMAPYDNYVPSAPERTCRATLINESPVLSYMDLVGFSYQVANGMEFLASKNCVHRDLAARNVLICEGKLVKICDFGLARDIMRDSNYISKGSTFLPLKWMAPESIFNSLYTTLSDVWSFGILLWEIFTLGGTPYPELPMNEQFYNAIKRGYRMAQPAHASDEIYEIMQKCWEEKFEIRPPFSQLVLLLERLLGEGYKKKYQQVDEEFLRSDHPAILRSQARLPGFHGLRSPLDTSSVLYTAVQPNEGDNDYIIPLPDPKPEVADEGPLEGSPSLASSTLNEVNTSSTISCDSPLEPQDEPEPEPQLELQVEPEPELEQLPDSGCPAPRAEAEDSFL
Sequence of Tb-labeled inactive PDGFRβ (P09619 whole entry, looked up): as above
Sequence of PDGFRβ (Q05030 whole entry, looked up): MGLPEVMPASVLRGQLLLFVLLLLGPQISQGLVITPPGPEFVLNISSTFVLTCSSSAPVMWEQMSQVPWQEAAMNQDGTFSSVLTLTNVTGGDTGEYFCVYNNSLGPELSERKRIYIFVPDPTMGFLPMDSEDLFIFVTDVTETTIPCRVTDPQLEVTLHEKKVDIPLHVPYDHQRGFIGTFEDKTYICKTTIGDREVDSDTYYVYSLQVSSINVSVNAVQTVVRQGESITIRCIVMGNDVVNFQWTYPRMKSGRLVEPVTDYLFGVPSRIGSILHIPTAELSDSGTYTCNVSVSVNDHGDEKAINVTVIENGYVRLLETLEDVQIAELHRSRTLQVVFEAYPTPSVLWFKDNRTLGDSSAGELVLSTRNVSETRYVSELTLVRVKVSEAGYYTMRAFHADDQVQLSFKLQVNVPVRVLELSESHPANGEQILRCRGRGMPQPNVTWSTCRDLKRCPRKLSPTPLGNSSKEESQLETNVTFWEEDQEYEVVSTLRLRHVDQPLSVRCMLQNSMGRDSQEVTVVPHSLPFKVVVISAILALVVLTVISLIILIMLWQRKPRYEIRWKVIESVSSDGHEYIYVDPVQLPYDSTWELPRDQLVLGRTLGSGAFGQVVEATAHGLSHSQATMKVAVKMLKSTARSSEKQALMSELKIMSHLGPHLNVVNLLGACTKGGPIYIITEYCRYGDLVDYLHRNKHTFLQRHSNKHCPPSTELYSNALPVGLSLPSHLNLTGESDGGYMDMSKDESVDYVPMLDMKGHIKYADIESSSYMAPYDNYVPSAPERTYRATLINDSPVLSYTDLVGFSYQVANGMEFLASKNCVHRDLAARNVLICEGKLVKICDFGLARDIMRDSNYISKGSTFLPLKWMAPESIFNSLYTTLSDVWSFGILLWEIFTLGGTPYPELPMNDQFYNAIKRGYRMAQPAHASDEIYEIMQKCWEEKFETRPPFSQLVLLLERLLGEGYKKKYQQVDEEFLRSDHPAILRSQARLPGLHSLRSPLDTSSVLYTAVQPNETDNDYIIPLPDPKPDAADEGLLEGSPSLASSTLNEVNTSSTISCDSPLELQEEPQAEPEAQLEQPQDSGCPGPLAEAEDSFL
Sequence of VEGFR2, unphosphorylated (P35968 whole entry, looked up): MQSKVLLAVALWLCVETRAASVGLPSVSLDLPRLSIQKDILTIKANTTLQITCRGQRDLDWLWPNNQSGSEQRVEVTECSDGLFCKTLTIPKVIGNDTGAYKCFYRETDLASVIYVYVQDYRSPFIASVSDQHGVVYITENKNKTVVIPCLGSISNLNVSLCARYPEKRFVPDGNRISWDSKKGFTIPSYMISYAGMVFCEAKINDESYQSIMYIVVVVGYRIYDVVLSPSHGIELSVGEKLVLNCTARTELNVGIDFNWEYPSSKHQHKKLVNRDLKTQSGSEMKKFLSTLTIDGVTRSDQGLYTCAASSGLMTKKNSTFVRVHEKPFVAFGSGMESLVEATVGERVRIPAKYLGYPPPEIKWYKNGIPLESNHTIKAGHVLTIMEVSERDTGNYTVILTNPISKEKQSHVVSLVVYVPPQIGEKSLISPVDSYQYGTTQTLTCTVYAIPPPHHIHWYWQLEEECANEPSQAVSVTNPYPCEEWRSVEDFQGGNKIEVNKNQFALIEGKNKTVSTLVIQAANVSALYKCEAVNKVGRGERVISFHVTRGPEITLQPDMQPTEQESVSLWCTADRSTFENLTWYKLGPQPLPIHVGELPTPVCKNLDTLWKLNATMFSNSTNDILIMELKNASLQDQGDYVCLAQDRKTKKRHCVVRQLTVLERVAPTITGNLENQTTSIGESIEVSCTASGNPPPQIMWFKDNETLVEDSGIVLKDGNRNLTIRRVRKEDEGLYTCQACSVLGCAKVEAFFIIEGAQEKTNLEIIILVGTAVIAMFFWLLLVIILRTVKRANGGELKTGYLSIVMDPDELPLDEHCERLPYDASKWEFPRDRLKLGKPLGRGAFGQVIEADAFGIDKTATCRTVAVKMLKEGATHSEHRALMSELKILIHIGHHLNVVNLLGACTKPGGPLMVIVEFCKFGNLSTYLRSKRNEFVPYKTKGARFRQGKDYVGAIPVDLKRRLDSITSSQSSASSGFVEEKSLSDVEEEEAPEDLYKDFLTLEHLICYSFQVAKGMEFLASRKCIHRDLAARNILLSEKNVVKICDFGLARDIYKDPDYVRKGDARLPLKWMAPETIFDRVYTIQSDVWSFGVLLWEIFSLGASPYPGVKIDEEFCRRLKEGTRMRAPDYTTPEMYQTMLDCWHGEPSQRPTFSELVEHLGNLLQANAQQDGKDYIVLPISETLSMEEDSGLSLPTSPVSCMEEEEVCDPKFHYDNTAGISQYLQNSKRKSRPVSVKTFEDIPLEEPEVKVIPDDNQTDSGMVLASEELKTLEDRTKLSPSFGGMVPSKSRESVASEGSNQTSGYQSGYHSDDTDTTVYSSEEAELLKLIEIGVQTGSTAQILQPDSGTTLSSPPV

Compound: Cc1nc(Nc2ncc(C(=O)Nc3c(C)cccc3Cl)s2)cc(N2CCN(CCO)CC2)n1 [dasatinib]
- cardiotoxicity and development of pulmonary hypertension [1]: linked to cardiotoxicity and the development of pulmonary hypertension

Compound: Cc1cc(C(=O)NCCN2CCC[C@@H]2C)sc1Nc1nn(C)c2nc(Nc3cnn(C)c3)ncc12 [Example 60, (S)-4-methyl-5-((1-methyl-6-((1-methyl-1H-pyrazol-4-yl)amino)-1H-pyrazolo[3,4-d]pyrimidin-3-yl)amino)-N-(2-(2-methylpyrrolidin-1-yl)ethyl)thiophene-2-carboxamide]
- IC50 [2]: > 7500 nM
- IC50 [3, 6]: 67.2 nM
- IC50 [4, 7]: 0.65 nM
- IC50 ([5]; read-out: PDGFR Lantha IC50): 9.7 nM

Compound: Cc1ncc(C(=O)NCCN2CCCC[C@H]2C)cc1Nc1nn(C)c2nc(Nc3cnn(C)c3)ncc12 [Example 82, (R)-6-methyl-5-((1-methyl-6-((1-methyl-1H-pyrazol-4-yl)amino)-1H-pyrazolo[3,4-d]pyrimidin-3-yl)amino)-N-(2-(2-methylpiperidin-1-yl)ethyl)nicotinamide]
- IC50 [2]: > 7500 nM
- IC50 [3]: 20.2 nM
- IC50 [4]: 0.18 nM
- IC50 [5]: 1.7 nM

Compound: Cc1ncc(C(=O)NCCN2CCCC2(C)C)cc1Nc1nn(C)c2nc(Nc3ccnc(N)c3)ncc12 [Example 41, 5-((6-((2-aminopyridin-4-yl)amino)-1-methyl-1H-pyrazolo[3,4-d]pyrimidin-3-yl)amino)-N-(2-(2,2-dimethylpyrrolidin-1-yl)ethyl)-6-methylnicotinamide]
- IC50 [2]: > 7500 nM
- IC50 [3, 6]: 115 nM
- IC50 [4, 7]: 0.36 nM
- IC50 ([5]; read-out: PDGFR Lantha IC50): 3.2 nM

Compound: Cc1ncc(C(=O)NCCN2CCCC2(C)C)cc1Nc1nn(C)c2nc(Nc3cccnc3)ncc12 [Example 42, N-(2-(2,2-dimethylpyrrolidin-1-yl)ethyl)-6-methyl-5-((1-methyl-6-(pyridin-3-ylamino)-1H-pyrazolo[3,4-d]pyrimidin-3-yl)amino)nicotinamide]
- IC50 [2]: > 10000 nM
- IC50 [3, 6]: 33.2 nM
- IC50 [4, 7]: 0.6 nM
- IC50 ([5]; read-out: PDGFR Lantha IC50): 3.9 nM

Compound: CO[C@@H]1CCN(CC(=O)Nc2cnc(C)c(Nc3nn(C)c4nc(Nc5cnn(C)c5)ncc34)c2)C1 [Example 135, (R)-2-(3-methoxypyrrolidin-1-yl)-N-(6-methyl-5-((1-methyl-6-((1-methyl-1H-pyrazol-4-yl)amino)-1H-pyrazolo[3,4-d]pyrimidin-3-yl)amino)pyridin-3-yl)acetamide]
- IC50 [2]: > 7500 nM
- IC50 [3, 6]: 9.5 nM
- IC50 [4, 7]: 0.41 nM
- IC50 ([5]; read-out: PDGFR Lantha IC50): 2.8 nM

Compound: Cc1ncc(NC(=O)CN2CCC[C@@H]2C)cc1Nc1nn(C)c2nc(Nc3ccnn3C)ncc12 [Example 143, (S)—N-(6-methyl-5-((1-methyl-6-((1-methyl-1H-pyrazol-5-yl)amino)-1H-pyrazolo[3,4-d]pyrimidin-3-yl)amino)pyridin-3-yl)-2-(2-methylpyrrolidin-1-yl)acetamide]
- IC50 [2]: > 7500 nM
- IC50 [3, 6]: 7.4 nM
- IC50 [4, 7]: 1.2 nM
- IC50 ([5]; read-out: PDGFR Lantha IC50): 11.7 nM

Compound: Cc1ncc(C(=O)NCCN2CCCC2(C)C)cc1Nc1nn(C)c2nc(Nc3cncc(C(=O)O)c3)ncc12 [Example 30, 5-((3-((5-((2-(2,2-dimethylpyrrolidin-1-yl)ethyl)carbamoyl)-2-methylpyridin-3-yl)amino)-1-methyl-1H-pyrazolo[3,4-d]pyrimidin-6-yl)amino)nicotinic acid]
- IC50 [2]: > 10000 nM
- IC50 [3, 6]: > 10000 nM
- IC50 [4, 7]: 3.8 nM
- IC50 ([5]; read-out: PDGFR Lantha IC50): 36.8 nM

Compound: Cc1ncc(C(=O)NCCN(C)C2CCCC2)cc1Nc1nn(C)c2nc(Nc3cncnc3)ncc12 [Example 9, N-(2-(cyclopentyl(methyl)amino)ethyl)-6-methyl-5-((1-methyl-6-(pyrimidin-5-ylamino)-1H-pyrazolo[3,4-d]pyrimidin-3-yl)amino)nicotinamide]
- IC50 [2]: > 7500 nM
- IC50 [3, 6]: 36.5 nM
- IC50 [4, 7]: 0.59 nM
- IC50 ([5]; read-out: PDGFR Lantha IC50): 7 nM
